Data from patent US20240391940A1, “FUSED RING-CONTAINING COMPOUND, APPLICATION THEREOF, AND COMPOSITION CONTAINING SAME” (GenEros Biopharma Ltd., priority 2020, published 2024).
Values joined by “and” are separate entries in the source; they are usually repeats but may differ in a detail not shown here. Identical values can stand only once.

How the values were obtained:
[1] = tested on: IMQ-induced psoriasis mouse model; test: IMQ-induced psoriasis mouse model (PASI scoring); type: in vivo, Balb/c mice; set-up: key to skin thickening in psoriasis mice (score) / skin redness in psoriasis mice (score) / skin scaling in psoriasis mice (score): 0 = none to 4 = very severe, per sign; details: DEX 3 mpk PO QD
Experimental: Method: This experiment used a total of 19 mice. A natural skin observation control (n=1). 2 cm^2 of hair was shaved off the backs of […] on day 0, the stubble was removed with a mild depilatory cream, and the original skin was photographed. 62.5 mg of IMQ was applied to each of the mice. There was a mock group (n=6), a DEX (3 mg/kg, PO., qD) group (n=6), and a GEN1-284s (30 mg/kg, PO, qD) group (n=6). On the day of modeling, administration was performed in a volume of 100 μL/20 g body weight 4 h after IMQ application. The PASI scoring method was used to score the erythema, swelling and scaling on the skin of the mice. The experiment took a total of 6 days. The first day was set to day 0. IMQ application and administration were not performed on day 5. The mice were sacrificed with carbon dioxide at the end of the experiment.
The test animals were anesthetized with isoflurane. 2 cm^2 of hair was shaved off the backs of the mice, and the stubble was removed with a depilatory cream. IMQ application was performed for a total of 5 days, from day 0 to day 4. Scoring and IMQ application were performed every morning. Administration was performed in the afternoon
Desquamation (D): means epidermal cells flake off. The severity scores of skin lesions were as follows: • 0=none; this sign cannot be confirmed by careful observation • 1=mild; this sign can be confirmed but careful observation is required • 2=moderate; this sign is more visible and can be confirmed immediately • 3=severe; this sign is marked. • 4=very severe; this sign is very marked.
Induration I: 0—skin lesions are at the same level as normal skin; • 1—skin lesions are at slightly higher levels than normal skin surface; • 2—lesions moderately stick out and have round or slope-shaped borders; • 3—skin lesions are thick and markedly stick out; • 4—skin lesions are very thick and very markedly stick out.
Erythema E: • 0—no visible erythema; • 1—light red; • 2—red; • 3—dark red; • 4—the red is very dark

[2] = tested on: LPS-induced production of TNF-α; test: LPS-induced TNF-α production in mice (plasma ELISA); type: in vivo; details: Balb/c mice; dexamethasone 3 mpk, LPS 1 mpk i.p. 0.5 h after administration, plasma 2 h after LPS
Experimental: Materials and method: A total of 18 mice were used in this experiment. The mice were divided into a MOCK group (n=6), a dexamethasone group (n=6), and a GEN1-284s 15 mpk group (n=6). LPS (1 mpk) was intraperitoneally injected 0.5 h after administration. The mice were sacrificed 2 h after the LPS injection, and blood samples were taken. The blood samples were left in EDTA-K2 anticoagulant tubes at room temperature for 20 min and centrifuged at 8000 rpm for 10 min. The plasma was separated and cryopreserved at −80° C. before analysis.
LPS (1 mpk) was intraperitoneally injected 0.5 h after administration. The mice were sacrificed 2 h after the LPS injection, and blood samples were taken. The blood samples were left in EDTA-K2 anticoagulant tubes at room temperature for 20 min and centrifuged at 8000 rpm for 10 min. The plasma was separated and cryopreserved at −80° C. before analysis.
The mice were tested for TNF-α level with ELISA kits, and the inhibitory effect of GEN1-284s on the TNF-α level was evaluated.
According to the instructions for use, a standard curve formula (y=0.0038x+0.1206, R^2=0.9956) was obtained and can be used to calculate detection values.

[3] = DAY 1, individual mice, listed as DEX
[4] = DAY 2, individual mice, listed as DEX
[5] = DAY 3, individual mice, listed as DEX
[6] = DAY 4, individual mice, listed as DEX
[7] = DAY 5, individual mice, listed as DEX

For `C[C@@H]1C[C@H]2[C@@H]3CCC4=CC(=O)C=C[C@]4(C)[C@@]3(F)[C@@H](O)C[C@]2(C)[C@@]1(O)C(=O)CO` [dexamethasone, Dexamethasone, reference compound], the “overall effect on the skin of psoriasis mice (score)” value (shortened to “overall effect on the skin”) ([1]; DAY 0, individual mice) was 0, the “skin redness in psoriasis mice (score)” value ([1]; DAY 0, individual mice) was 0 and the “skin scaling in psoriasis mice (score)” value ([1]; DAY 0, individual mice) was 0. The “skin thickening in psoriasis mice (score)” value (shortened to “skin thickening”) ([1]; DAY 0, individual mice) was 0, the “overall effect on the skin” value [1, 3] was 1.167 (2×) and 0.5 and 1.333 (2×) and 0.8333 and the “skin redness in psoriasis mice (score)” value [1, 3] was 0.6667 (2×) and 0.1667 and 0.3333 and 0.5 (2×). The “skin scaling in psoriasis mice (score)” value [1, 3] was 0.5 and 0.3333 (2×) and 0.8333 (2×) and 0.1667, the “skin thickening” value [1, 3] was 0 (5×) and 0.5 and the “overall effect on the skin” value [1, 4] was 1.333 and 1 and 0.5 and 0.8333 and 1.667 and 0.6667. For the same compound, the “skin redness in psoriasis mice (score)” value [1, 4] was 0.5 (2×) and 0.6667 (2×) and 0.1667 (2×), the “skin scaling in psoriasis mice (score)” value [1, 4] was 0.8333 and 0.3333 and 0 (2×) and 0.6667 and 1 and the “skin thickening” value [1, 4] was 0 (5×) and 0.5. For the same compound, the “overall effect on the skin” value [1, 5] was 2.5 and 3 and 1 and 2 (2×) and 1.667, the “skin redness in psoriasis mice (score)” value [1, 5] was 1.167 and 1 and 0.5 (2×) and 0.3333 and 0.6667 and the “skin scaling in psoriasis mice (score)” value [1, 5] was 1.333 and 1.5 and 0.5 (2×) and 1 and 1.167. For the same compound, the “skin thickening” value [1, 5] was 0 (2×) and 0.5 (4×), the “overall effect on the skin” value [1, 6] was 2.333 (2×) and 1.5 and 3.5 and 3.667 and 2.667 and the “skin redness in psoriasis mice (score)” value [1, 6] was 0.6667 and 0.5 (2×) and 1.167 (2×) and 1.667. For the same compound, the “skin scaling in psoriasis mice (score)” value [1, 6] was 1.167 and 1 (2×) and 1.833 and 1.333 and 1.5, the “skin thickening” value [1, 6] was 0.5 (5×) and 0 and the “overall effect on the skin” value [1, 7] was 3.333 and 2.5 and 3.667 and 2.833 (2×) and 3.5. The “skin redness in psoriasis mice (score)” value [1, 7] was 1.167 and 1 (2×) and 0.8333 and 0.6667 and 1.5, the “skin scaling in psoriasis mice (score)” value [1, 7] was 1.667 (2×) and 1.5 (2×) and 2.333 and 1.333 and the “skin thickening” value [1, 7] was 0.5 (5×) and 0. The “Inhibition rate against LPS-induced TNF-α” value [2] was 81%.
